Assay results as given in patent US6726940B2, “Use of at least one extract of the genus chrysanthemum for assisting skin and/or hair pigmentation” (Societe L'Oreal S.A., priority 1997, dated 2004).

Assays:
[1] = test system: co-cultures of normal human keratinocytes/melanocytes; assay: Modulation of melanogenesis: incorporation of 14C thiouracil in co-cultures of keratinocytes/melanocytes; assay type: cell-based; settings: NHK/NHM co-culture, three days treatment
Description: The modulator effect on melanogenesis of the extract obtained by Protocol 2 of Example 1 was tested on co-cultures of normal human keratinocytes/melanocytes according to the method described in the Patent FR 95 06491. The rate of synthesis of melanine is evaluated by the incorporation of thiouracil labelled with C^14. The synthesis of the proteins, determined by the incorporation of tritiated leucine, is taken as an indicator of cytotoxicity and of proliferation. The normal human keratinocytes (NHK) and the normal human melanocytes (NHM) are cultured from preputial skin. The two types of cells are proliferated and stored frozen. […] The proteins are precipitated with the aid of 5% trichloroacetic acid (TCA) and washed in order to eliminate the free radioactivity. […] The radioactivity is counted with the aid of the Wallac counter. The results are expressed as a percentage of the control according to the formula: [formula] in which: ^14CP is the average of the disintegrations per minute (dpm) of ^14C thiouracil in 3 similar wells treated with a product (P); ^3HP is the average of the corresponding ^3H leucine dpm; ^14CT is the average of the ^14C thiouracil dpm in 3 similar control wells (T); ^3HT is the average of the corresponding ^3H leucine dpm.

[2] = test system: co-cultures of normal human keratinocytes/melanocytes; assay: Synthesis of proteins: incorporation of tritiated leucine, indicator of cytotoxicity and of proliferation; assay type: cell-based; settings: NHK/NHM co-culture, three days treatment
Description: The modulator effect on melanogenesis of the extract obtained by Protocol 2 of Example 1 was tested on co-cultures of normal human keratinocytes/melanocytes according to the method described in the Patent FR 95 06491. The rate of synthesis of melanine is evaluated by the incorporation of thiouracil labelled with C^14. The synthesis of the proteins, determined by the incorporation of tritiated leucine, is taken as an indicator of cytotoxicity and of proliferation.
The normal human keratinocytes (NHK) and the normal human melanocytes (NHM) are cultured from preputial skin. The two types of cells are proliferated and stored frozen. Eight days before the test, each of the cell types is again put into culture in KGM medium from Gibco for keratinocytes (NHK) and into M2 medium from Dr Olsson for melanocytes (NHM) (Olsson, M. J. et al., Lancet (1992) 340, 981). […]
The total radioactivity incorporated in the proteins is estimated by the incorporation of tritiated leucine. […]
After one night, the cells are rinsed in phosphate buffer. The proteins are precipitated with the aid of 5% trichloroacetic acid (TCA) and washed in order to eliminate the free radioactivity. […]
The remainder of the extract, or 950 μl, is filtered through a DEAE Filtermat filter. […] The radioactivity is counted with the aid of the Wallac counter. The results are expressed as a percentage of the control according to the formula: [formula] […]

SMILES	^14CThioU. (%/control) ([1]; 1 mM)	^3HLeu. (%/control) ([2]; 1 mM)	^14CThioU. (%/control) ([1]; 0.5 mM)	^3HLeu. (%/control) ([2]; 0.5 mM)
N[C@@H](Cc1ccc(O)cc1)C(=O)O [tyrosine]	+118 %/control	−2	–	–
O=c1cc(CO)occ1O [kojic acid]	–	–	−47	+4 %/control
